Source: patent US20240408053A1, “ENTERITIS-SUPPRESSING COMPOSITION” (KOBE GAKUIN EDUCATIONAL FOUNDATION, priority 2021, published 2024)
Entries after “also recorded” stand apart in the source; their conditions may differ.

Assays:
[1] = tested on: MDA+HAE; assay: Lipid peroxide measurement (MDA+HAE) in colon tissue; assay type: in vivo, mice; settings: group ES: 2.0% v/v ethanol diet + 2.5 mg sesaminol per day oral, 2 weeks; group E highest
Protocol: Lipid peroxidation is used as an indicator of oxidative stress in cells and tissues; lipid peroxides produce MDA and HAE upon degradation. Therefore, the MDA+HAE level in colon tissue was examined as a marker of lipid peroxidation response.
A colon tissue sample (100 mg) was homogenized in 1 mL of 20 mM phosphate buffered saline (pH of 7.4) with a homogenizer and centrifuged at 3,000× g at 4° C. for 10 minutes. The resulting precipitate was examined for malondialdehyde (MDA) and 4-hydroxyalkenals (HAE) using a lipid peroxide assay kit (Oxford Biomedical Research, Inc.).

[2] = tested on: Nrf2; assay: Nrf2 activation level in colon tissue extracts by ELISA; assay type: in vivo, mice; settings: group ES: 2.0% v/v ethanol diet + 2.5 mg sesaminol per day oral, 2 weeks; group E significantly reduced
Protocol: The Nrf2 transcription factor is a master regulator of cytoprotection and promotes HO-1 gene expression in intracellular response to oxidative stress. Thus, in terms of the decrease in the HO-1 expression level in group E, the activation level of the Nrf2 transcription factor was examined. The protein amounts in the colon tissue extracts of the groups were adjusted to be equal, and Nrf2 activation levels in the colon tissue extracts were determined by ELISA.

[3] = tested on: MCP-1; assay: MCP-1 expression in colon tissue (qRT-PCR, ELISA); assay type: in vivo, mice; settings: group ES: 2.0% v/v ethanol diet + 2.5 mg sesaminol per day oral, 2 weeks, vs group E; higher than group C
From the text: It has been reported that chronic consumption of an excessive amount of ethanol can induce inflammation associated with tumor formation in colon tissue. Therefore, in order to verify whether oral administration of sesaminol has a preventive effect on ethanol-induced colitis, the expression levels of inflammatory cytokines (TNF-α and IL-6) and chemokine (MCP-1) in the large intestinal lamina propria of the mice in the four groups (groups C, S, E, and ES) were examined by qRT-PCR and ELISA. The NF-κB activity in the mice in the four groups was also examined. NF-κB is a transcription factor that is involved in expression of genes regulating inflammation and is activated by exposure of immune cells to pro-inflammatory factors.
Total RNA was extracted from colon tissue samples. […]
A colon tissue sample (100 mg) was homogenized in 1 mL of an M-PER mammalian protein extraction reagent (Pierce) containing a diluent of a protease inhibitor cocktail (Nacalai Tesque, Inc.), and the resulting homogenate was centrifuged at 20,000× g at 4° C. for 15 minutes. The protein concentration of the supernatant was measured with a protein assay reagent (Bio-Rad Laboratories, Inc.), and equal amounts of proteins were used for analysis of the expression levels of TNF-α, IL-6, and MCP-1 by ELISA.

[4] = tested on: ethanol-induced lesions in mouse colon; assay: Microscopic evaluation of colon tissue (HE, TB, PAS, MUC2 staining), 4 weeks; assay type: in vivo, mice; settings: group ES: 2.0% v/v ethanol diet + 2.5 mg sesaminol per day oral
Protocol: In order to verify the longer-term effect of oral administration of sesaminol on ethanol-induced oxidative stress in mouse colon, the colonic epithelium of the mice in each group (groups C, E, S, and ES) described in Example 7 was HE-stained, TB-stained, and periodic-acid-Schiff (PAS)-stained and observed under a microscope (FIGS. 10(A),(B), and (C)). Immunostaining with MUC2 polyclonal antibody was then performed (FIG. 10(D)). HE staining, TB staining, and immunostaining with MUC2 polyclonal antibody were performed in the same manner as in Example 2.
Colon tissue samples were each fixed in a 10% v/v neutral formaldehyde solution overnight at room temperature and paraffin-embedded. The colon tissue sections were then stained with PAS staining reagent for the detection of goblet cells. Each stained specimen was observed under a microscope and subjected to image analysis.

[5] = tested on: fecal mucin; assay: Amount of fecal mucin of mice; assay type: in vivo; settings: group ES: 2.0% v/v ethanol diet + 2.5 mg sesaminol per day oral, 4 weeks, vs group E; level similar to group C
From the text: The effect of oral administration of sesaminol on the amount of mucus secretion in mouse colon was examined by measuring the amount of fecal mucin of the mice in each group (groups C, E, S, and ES) and the amount of secretory immunoglobulin A (sIgA) in the colon tissue of the mice.
Fecal samples were each freeze-dried overnight in a freeze-drying equipment and then formed into a powder. After weighing each of the dried, powdered feces, fecal mucin was quantified according to the product protocol of a reagent kit for measuring fecal mucin (Fecal Mucin Assay Kit, produced by Cosmo Bio Co., Ltd.), and converted to the mucin amount (ug) per amount of dry feces (g). The results were evaluated.

[6] = tested on: ZO-1; assay: Immunofluorescence staining of ZO-1 in colon tissue, 4 weeks; assay type: in vivo, mice; settings: group ES: 2.0% v/v ethanol diet + 2.5 mg sesaminol per day oral, group E significant decrease
Protocol: (§1) Next, in order to verify the longer-term effect of oral administration of sesaminol on ethanol-induced intestinal tight junction (TJ) dysfunction and leaky gut, histological analysis of colonic epithelial TJ proteins (ZO-1, Occludin, and Claudin-1) and analysis of the plasma LPS level were performed using the mice in each group (groups C, S, E, and ES) described in Example 7. Histological analysis was performed by immunofluorescence staining with anti-ZO-1, anti-Occludin, and anti-Claudin-1 antibodies, followed by observation under a fluorescence microscope. The Plasma LPS level was measured according to the method described in Example 6.

[7] = tested on: occludin; assay: Immunofluorescence staining of Occludin in colon tissue, 4 weeks; assay type: in vivo, mice; settings: group ES: 2.0% v/v ethanol diet + 2.5 mg sesaminol per day oral, group E significant decrease
Protocol: as §1

[8] = tested on: claudin-1; assay: Immunofluorescence staining of Claudin-1 in colon tissue, 4 weeks; assay type: in vivo, mice; settings: group ES: 2.0% v/v ethanol diet + 2.5 mg sesaminol per day oral, group E significant decrease
Protocol: as §1

[9] = Amount of short-chain fatty acids in mouse feces (GC-FID); assay type: in vivo, mice; settings: 4 weeks
Protocol: Short-chain fatty acids are metabolites of intestinal bacteria. The amounts of short-chain fatty acids (acetic acid, propionic acid, and butyric acid) in feces of the mice in each group (groups C, E, S, and ES) were measured.
The amounts of short-chain fatty acids in the mouse feces were measured by outsourcing to TechnoSuruga Laboratory Co., Ltd.
Immediately after collection, mouse feces was treated with liquid nitrogen and stored at −80° C. While the fecal samples were frozen, an amount of 100 mg was crushed with beads and formed into a powder, and components extracted with ethyl acetate treatment were used as detection samples. For the measurement, a gas-chromatography-flame ionization detector system (Agilent 7890B GC, produced by Agilent technologies) was used, and the concentration of each short-chain fatty acid was calculated by comparison with the amount of standard substance.

[10] = group ES: 2.0% v/v ethanol diet + 2.5 mg sesaminol per day oral

Q: With `Oc1cc2c(cc1C1OCC3C(c4ccc5c(c4)OCO5)OCC13)OCO2` (stereo not drawn) [Sesaminol] as the compound, how does the “MDA+HAE level in colon tissue” value [1] read?
A: The value was “next highest value; also recorded: slightly higher than those of group C and group S”.

Q: What about the Nrf2 activation level [2] of the same compound?
A: The Nrf2 activation level was “recovered to a level similar to that in group C”.

Q: What about the “expression level of MCP-1 (mRNA by qRT-PCR, protein by ELISA)” value [3] of the same compound?
A: Its value is “significantly lower than those in group E”.

Q: And the “histological image of colon tissue (epithelium atrophy, goblet cells, mucus-secreting cells)” value [4]?
A: Its value is “tendency of returning to the histological image of group C”.

Q: And the “amount of fecal mucin” value [5]?
A: The value was “significantly higher than that in group E”.

Q: And the “protein level of ZO-1 in colon tissue (fluorescence microscope observation)” value [6]?
A: Its value is “improvement in all of those levels”.

Q: And the “protein level of Occludin in colon tissue (fluorescence microscope observation)” value [7]?
A: Its value is “improvement in all of those levels”.

Q: What about the “protein level of Claudin-1 in colon tissue (fluorescence microscope observation)” value [8] of the same compound?
A: Its value is “improvement in all of those levels”.

Q: What about the “acetic acid in the feces” value [9, 10] of the same compound?
A: The value was “significant increase”.

Q: And the “propionic acid in the feces” value [9, 10]?
A: The value was “significant increase”.

Q: And the “amount of butyric acid in the feces” value ([9]; group ES: 2.0% v/v ethanol diet + 2.5 mg sesaminol per day oral, group E significant decrease)?
A: The value was “increase in the amount of butyric acid to the same level as that in group C”.

Q: And the “amount of short-chain fatty acids (acetic acid, propionic acid, butyric acid) in the feces” value ([9]; group S: 2.5 mg sesaminol per day oral, no ethanol, vs all other groups)?
A: Its value is “significant increase in the amount of short-chain fatty acids in the feces compared with all the other groups”.
